Reference: patent US8334236B2, “Ring-fused 2-pyridone derivatives and herbicides” (Kumiai Chemical Industry Co., Ltd., priority 2009, dated 2012)

Test system: Echinochloa oryzicola Vasing
Experiment: Test Example 1: herbicidal effects in paddy field soil treatment
Type: in vivo
Design: scale not given here
Settings: 1000 g active ingredient per hectare, 21st day after treatment
Experimental: (§1) 100-cm^2 plastic pots were filled with paddy field soil. After puddling and leveling, seeds of Echinochloa oryzicola Vasing, Monochoria vaginalis (Burm. f.) Presl var. plantaginea (Roxb.) Solms-Laub., and Scirpus juncoides Roxb. var. ohwianus. T. Koyama were sowed in the pots, and the soil was waterlogged to a water depth of 3 cm. On the next day, a wettable powder formulation prepared according to Formulation Example 1 was diluted with water, and the dilution was added dropwise onto the water surface. The amount of application was an amount equivalent to 1000 g of the active ingredient per hectare. Thereafter, the plants were grown in a greenhouse, and on the 21st day after the treatment, the herbicidal effects were investigated according to the criteria described in Table 71.
(§2) In addition, comparative compound A, comparative compound B, comparative compound C, and comparative compound D in the tables represent Compound Nos. 70, 34, 32, and 31, respectively, as described in EP-283261. The structural formulas of these compounds are presented below.

Point of comparison: Cc1ccc2cc(C(=O)C3=C(O)CCCC3=O)c(=O)n(-c3ccccc3)c2n1 [II-123], “Herbicidal effect index, Echinochloa oryzicola” value 5. Against it:
- O=C1CCCC(O)=C1C(=O)c1cnccn1 [Comparative compound A, reference compound] — lower, 2
- Cn1c(=O)c(C(=O)C2=C(O)CCCC2=O)cc2ccc(C(F)(F)Cl)nc21 [II-141] — the same, 5
- CC1(C)CCC(=O)C(C(=O)c2cnc3ccccc3n2)=C1O [Comparative compound D, reference compound] — lower, 1
- CCOCCn1c(=O)c(C(=O)C2=C(O)CCCC2=O)cc2cccnc21 [II-15] — the same, 5
- CC(C)c1ccc2cc(C(=O)C3=C(O)CCCC3=O)c(=O)n(-c3ccccc3)c2n1 [II-128] — the same, 5

Test system: Monochoria vaginalis (Burm. f.) Presl var. plantaginea (Roxb.) Solms-Laub.
Experiment: as above
Type: in vivo
Design: scale not given here
Settings: 1000 g active ingredient per hectare, 21st day after treatment
Experimental: as §1, §2

Point of comparison: Cn1c(=O)c(C(=O)C2=C(O)CCCC2=O)cc2ccc(C(F)(F)Cl)nc21 [II-141], “Herbicidal effect index, Monochoria vaginalis” value 5. Against it:
- O=C1CCCC(O)=C1C(=O)c1cnccn1 [Comparative compound A, reference compound] — lower, 0
- CC1(C)CCC(=O)C(C(=O)c2cnc3ccccc3n2)=C1O [Comparative compound D, reference compound] — lower, 4
- CCOCCn1c(=O)c(C(=O)C2=C(O)CCCC2=O)cc2cccnc21 [II-15] — the same, 5
- Cc1ccc2cc(C(=O)C3=C(O)CCCC3=O)c(=O)n(-c3ccccc3)c2n1 [II-123] — the same, 5
- CC(C)c1ccc2cc(C(=O)C3=C(O)CCCC3=O)c(=O)n(-c3ccccc3)c2n1 [II-128] — the same, 5

Test system: Scirpus juncoides Roxb. var. ohwianus. T. Koyama
Experiment: as above
Type: in vivo
Design: scale not given here
Settings: 1000 g active ingredient per hectare, 21st day after treatment
Experimental: as §1, §2

Point of comparison: O=C1CCCC(O)=C1C(=O)c1cnccn1 [Comparative compound A, reference compound], “Herbicidal effect index, Scirpus juncoides” value 0. Against it:
- Cn1c(=O)c(C(=O)C2=C(O)CCCC2=O)cc2ccc(C(F)(F)Cl)nc21 [II-141] — higher, 5
- CC1(C)CCC(=O)C(C(=O)c2cnc3ccccc3n2)=C1O [Comparative compound D, reference compound] — higher, 2
- CCOCCn1c(=O)c(C(=O)C2=C(O)CCCC2=O)cc2cccnc21 [II-15] — higher, 5
- Cc1ccc2cc(C(=O)C3=C(O)CCCC3=O)c(=O)n(-c3ccccc3)c2n1 [II-123] — higher, 5
- CC(C)c1ccc2cc(C(=O)C3=C(O)CCCC3=O)c(=O)n(-c3ccccc3)c2n1 [II-128] — higher, 5

Test system: Abutilon theophrasti medicus
Experiment: Test Example 2: herbicidal effects in farmland soil treatment
Type: in vivo
Design: scale not given here
Settings: 1000 g active ingredient per hectare, 21st day after treatment
Experimental: (§3) 80-cm^2 plastic pots were filled with farmland soil. Seeds of Abutilon theophrasti medicus and Amaranthus retroflexus were sowed in the pots, and soil was covered. A wettable powder formulation prepared according to Formulation Example 1 was diluted with water, and the dilution was uniformly sprayed on the soil surface with a small sprayer, in an amount equivalent to 1000 liters per hectare, such that 1000 g of the active ingredient was applied per hectare. Thereafter, the plants were grown in a greenhouse, and on the 21st day after the treatment, the herbicidal effects were investigated according to the criteria described in Table 71 shown above.

Point of comparison: CCOCCn1c(=O)c(C(=O)C2=C(O)CCCC2=O)cc2cccnc21 [II-15], “Herbicidal effect index, Abutilon thophrasti” value 5. Against it:
- O=C1CCCC(O)=C1C(=O)c1cnccn1 [Comparative compound A, reference compound] — lower, 1
- Cn1c(=O)c(C(=O)C2=C(O)CCCC2=O)cc2ccc(C(F)(F)Cl)nc21 [II-141] — the same, 5
- CC1(C)CCC(=O)C(C(=O)c2cnc3ccccc3n2)=C1O [Comparative compound D, reference compound] — lower, 0
- Cc1ccc2cc(C(=O)C3=C(O)CCCC3=O)c(=O)n(-c3ccccc3)c2n1 [II-123] — the same, 5
- CC(C)c1ccc2cc(C(=O)C3=C(O)CCCC3=O)c(=O)n(-c3ccccc3)c2n1 [II-128] — lower, 4

Test system: Amaranthus retroflexus
Experiment: as above
Type: in vivo
Design: scale not given here
Settings: 1000 g active ingredient per hectare, 21st day after treatment
Experimental: as §3

Point of comparison: CC1(C)CCC(=O)C(C(=O)c2cnc3ccccc3n2)=C1O [Comparative compound D, reference compound], “Herbicidal effect index, Amaranthus retroflexus” value 3. Against it:
- O=C1CCCC(O)=C1C(=O)c1cnccn1 [Comparative compound A, reference compound] — lower, 0
- Cn1c(=O)c(C(=O)C2=C(O)CCCC2=O)cc2ccc(C(F)(F)Cl)nc21 [II-141] — the same, 3
- CCOCCn1c(=O)c(C(=O)C2=C(O)CCCC2=O)cc2cccnc21 [II-15] — higher, 5
- Cc1ccc2cc(C(=O)C3=C(O)CCCC3=O)c(=O)n(-c3ccccc3)c2n1 [II-123] — higher, 5
- CC(C)c1ccc2cc(C(=O)C3=C(O)CCCC3=O)c(=O)n(-c3ccccc3)c2n1 [II-128] — higher, 5

Test system: Abutilon theophrasti medicus
Experiment: Test Example 3: herbicidal effects in farmland foliar treatment
Type: in vivo
Design: scale not given here
Settings: 1000 g active ingredient per hectare, 14th day after treatment
Experimental: (§4) 80-cm^2 plastic pots were filled with farmland soil. Seeds of Echinochloa crus-galli (L.) P. Beauv. var. crus-galli, Abutilon theophrasti medicus, and Amaranthus retroflexus were sowed in the pots, and the plants were grown for two weeks in a greenhouse. A wettable powder formulation prepared according to Formulation Example 1 was diluted with water, and the dilution was applied by foliar treatment by spraying with a small sprayer over the whole plant from the upper part, in an amount equivalent to 1000 liters per hectare, such that 1000 g of the active ingredient was applied per hectare. Thereafter, the plants were grown in a greenhouse, and on the 14th day after the treatment, the herbicidal effects were investigated according to the criteria described in Table 71 shown above.

Point of comparison: CC1(C)CCC(=O)C(C(=O)c2cnc3ccccc3n2)=C1O [Comparative compound D, reference compound], “Herbicidal effect index, Abutilon theoprasti” value 4. Against it:
- O=C1CCCC(O)=C1C(=O)c1cnccn1 [Comparative compound A, reference compound] — lower, 2
- Cn1c(=O)c(C(=O)C2=C(O)CCCC2=O)cc2ccc(C(F)(F)Cl)nc21 [II-141] — higher, 5
- CCOCCn1c(=O)c(C(=O)C2=C(O)CCCC2=O)cc2cccnc21 [II-15] — higher, 5
- Cc1ccc2cc(C(=O)C3=C(O)CCCC3=O)c(=O)n(-c3ccccc3)c2n1 [II-123] — higher, 5
- CC(C)c1ccc2cc(C(=O)C3=C(O)CCCC3=O)c(=O)n(-c3ccccc3)c2n1 [II-128] — higher, 5

Test system: Amaranthus retroflexus
Experiment: as above
Type: in vivo
Design: scale not given here
Settings: 1000 g active ingredient per hectare, 14th day after treatment
Experimental: as §4

Point of comparison: O=C1CCCC(O)=C1C(=O)c1cnccn1 [Comparative compound A, reference compound], “Herbicidal effect index, Amaranthus retroflexus” value 1. Against it:
- Cn1c(=O)c(C(=O)C2=C(O)CCCC2=O)cc2ccc(C(F)(F)Cl)nc21 [II-141] — higher, 4
- CC1(C)CCC(=O)C(C(=O)c2cnc3ccccc3n2)=C1O [Comparative compound D, reference compound] — the same, 1
- CCOCCn1c(=O)c(C(=O)C2=C(O)CCCC2=O)cc2cccnc21 [II-15] — higher, 5
- Cc1ccc2cc(C(=O)C3=C(O)CCCC3=O)c(=O)n(-c3ccccc3)c2n1 [II-123] — higher, 5
- CC(C)c1ccc2cc(C(=O)C3=C(O)CCCC3=O)c(=O)n(-c3ccccc3)c2n1 [II-128] — higher, 5

Test system: Echinochloa crus-galli (L.) P. Beauv. var. crus-galli
Experiment: as above
Type: in vivo
Design: scale not given here
Settings: 1000 g active ingredient per hectare, 14th day after treatment
Experimental: as §4

Point of comparison: O=C1CCCC(O)=C1C(=O)c1cnccn1 [Comparative compound A, reference compound], “Herbicidal effect index, Echinochloa crus-galli” value 0. Against it:
- Cn1c(=O)c(C(=O)C2=C(O)CCCC2=O)cc2ccc(C(F)(F)Cl)nc21 [II-141] — higher, 3
- CC1(C)CCC(=O)C(C(=O)c2cnc3ccccc3n2)=C1O [Comparative compound D, reference compound] — the same, 0
- CCOCCn1c(=O)c(C(=O)C2=C(O)CCCC2=O)cc2cccnc21 [II-15] — higher, 5
- Cc1ccc2cc(C(=O)C3=C(O)CCCC3=O)c(=O)n(-c3ccccc3)c2n1 [II-123] — higher, 5
- CC(C)c1ccc2cc(C(=O)C3=C(O)CCCC3=O)c(=O)n(-c3ccccc3)c2n1 [II-128] — higher, 5

Test system: Echinochloa crus-galli
Experiment: Test Example 2: herbicidal effects in farmland soil treatment
Type: in vivo
Design: scale not given here
Settings: 1000 g active ingredient per hectare, 21st day after treatment

Point of comparison: CCOCCn1c(=O)c(C(=O)C2=C(O)CCCC2=O)cc2cccnc21 [II-15], “Herbicidal effect index, Echinochloa crus-galli” value 5. Against it:
- O=C1CCCC(O)=C1C(=O)c1cnccn1 [Comparative compound A, reference compound] — the same, 5
- Cn1c(=O)c(C(=O)C2=C(O)CCCC2=O)cc2ccc(C(F)(F)Cl)nc21 [II-141] — lower, 3
- CC1(C)CCC(=O)C(C(=O)c2cnc3ccccc3n2)=C1O [Comparative compound D, reference compound] — lower, 2
- Cc1ccc2cc(C(=O)C3=C(O)CCCC3=O)c(=O)n(-c3ccccc3)c2n1 [II-123] — the same, 5
- CC(C)c1ccc2cc(C(=O)C3=C(O)CCCC3=O)c(=O)n(-c3ccccc3)c2n1 [II-128] — the same, 5

Test system: Setaria viridis
Experiment: as above
Type: in vivo
Design: scale not given here
Settings: 1000 g active ingredient per hectare, 21st day after treatment

Point of comparison: O=C1CCCC(O)=C1C(=O)c1cnccn1 [Comparative compound A, reference compound], “Herbicidal effect index, Setaria viridis” value 1. Against it:
- Cn1c(=O)c(C(=O)C2=C(O)CCCC2=O)cc2ccc(C(F)(F)Cl)nc21 [II-141] — higher, 4
- CC1(C)CCC(=O)C(C(=O)c2cnc3ccccc3n2)=C1O [Comparative compound D, reference compound] — lower, 0
- CCOCCn1c(=O)c(C(=O)C2=C(O)CCCC2=O)cc2cccnc21 [II-15] — higher, 5
- Cc1ccc2cc(C(=O)C3=C(O)CCCC3=O)c(=O)n(-c3ccccc3)c2n1 [II-123] — higher, 5
- CC(C)c1ccc2cc(C(=O)C3=C(O)CCCC3=O)c(=O)n(-c3ccccc3)c2n1 [II-128] — higher, 5

Test system: Setaria viridis
Experiment: Test Example 3: herbicidal effects in farmland foliar treatment
Type: in vivo
Design: scale not given here
Settings: 1000 g active ingredient per hectare, 14th day after treatment

Point of comparison: Cc1ccc2cc(C(=O)C3=C(O)CCCC3=O)c(=O)n(-c3ccccc3)c2n1 [II-123], “Herbicidal effect index, Setaria viridis” value 5. Against it:
- O=C1CCCC(O)=C1C(=O)c1cnccn1 [Comparative compound A, reference compound] — lower, 0
- Cn1c(=O)c(C(=O)C2=C(O)CCCC2=O)cc2ccc(C(F)(F)Cl)nc21 [II-141] — lower, 4
- CC1(C)CCC(=O)C(C(=O)c2cnc3ccccc3n2)=C1O [Comparative compound D, reference compound] — lower, 0
- CCOCCn1c(=O)c(C(=O)C2=C(O)CCCC2=O)cc2cccnc21 [II-15] — the same, 5
- CC(C)c1ccc2cc(C(=O)C3=C(O)CCCC3=O)c(=O)n(-c3ccccc3)c2n1 [II-128] — the same, 5
